Assay results: patent publication US8530406B2, “HMG-CoA reductase derived peptide and cosmetic or pharmaceutical composition containing same” (ISP Investments Inc., priority 2008, dated 2013)
No end group written: not given here.

What was measured:
Assay type in all cases: cell-based
[1] = tested on: normal human dermal fibroblasts; test: Ultrastructural study of caveolae in human fibroblasts; details: 0.5 ppm peptide, 48 hours
Protocol: The goal of this study is to study at the ultrastructural level the caveolae in human dermal fibroblasts.
Normal human dermal fibroblasts in culture are treated with a 1% stock solution at 50 ppm of peptide SEQ ID No. 4 for 48 hours (the medium in the presence of the active ingredient is changed every 24 hours).

HMG-CoA reductase [2] = test: Expression of HMG-CoA reductase in normal human keratinocytes (immunofluorescence); details: 0.5 ppm peptide, 48 hours
Protocol: The goal of this study is to determine the influence of peptide SEQ ID No. 4 on the expression of HMG-CoA reductase in normal human keratinocytes.
Normal human dermal keratinocytes in culture are treated with a 1% stock solution at 50 ppm of peptide SEQ ID No. 4 for 48 hours (the medium in the presence of the active ingredient is changed every 24 hours). The cells are then washed and fixed in cold methanol for 4 minutes at 4° C. The cells are incubated in the presence of a polyclonal rabbit antibody specific for HMG-CoA reductase (Millipore, Upstate), and then a secondary antibody coupled with a fluorescent dye. The cells are then examined by epifluorescence microscope (Nikon Eclipse E600 microscope).

[3] = tested on: normal human keratinocytes; test: Ultrastructural study (transmission electron microscopy) of lamellar bodies in human keratinocytes; details: 0.5 ppm peptide
Protocol: The goal of this study is to study in an ultrastructural manner, in transmission electron microscopy, keratinocytes treated by peptide SEQ ID No. 5 at 0.5 ppm.
Normal human keratinocytes in culture are treated with a 1% stock solution at 50 ppm of peptide SEQ ID No. 5 for 48 hours (the medium in the presence of the active ingredient is changed every 24 hours). The cells are washed in PBS, and then are fixed by Karnosky hypertonic fixation (4% paraformaldehyde, 5% glutaraldehyde in a 0.08M phosphate buffer) 1 hour at ambient temperature and then 24 hours at 4° C. The cells are detached from the support by scraping and centrifuged 5 minutes at 1000 rpm. The supernatant is eliminated and a 1M sodium cacodylate buffer is deposited on the residue. The cells are mixed with 2% agar and then postfixed by osmium tetraoxide for 1 hour. The specimens are then dehydrated by successive passages in a series of alcohol (from 50 to 100%). The cells are then coated in a resin. The polymerization is carried out for approximately 12 hours at 60° C. Semi-thin sections of 0.5 μm are made with an ultramicrotome. The sections are deposited on a heat bonded slide and then colored with toluidine blue. The slides are then dehydrated again and mounted in a suitable medium. After having chosen the optimal study zone, the block is recut to the desired size and ultrathin sections are then made, only sections with a silver-grey color and a suitable size are mounted on the electron microscopy grid labeled with both uranyl acetate and lead citrate, and are examined by transmission electron microscope at 60 or 80 KV.

HMG-CoA reductase [4] = test: Expression of HMG-CoA reductase in skin biopsies (immunolabelling); details: 0.5 ppm peptide applied topically, human skin samples in culture, 24 hours or 48 hours
Protocol: The goal of this study is to determine the influence of peptide SEQ ID No. 5 on the expression of HMG-CoA reductase.
Samples of human skin are placed in culture at the air/liquid interface. A 1% stock solution at 50 ppm of peptide SEQ ID No. 5 is applied topically and then the samples are incubated for 24 hours or 48 hours.
These skin samples are then fixed with formaldehyde and then enclosed in paraffin. Sections of 2 to 3 μm are then made Immunolabelling is carried out after unmasking the specific sites by microwave treatment and then incubation in trypsin Immunolabelling is carried out by using a polyclonal rabbit antibody specific for HMG-CoA reductase (Millipore, Upstate), and then a secondary antibody, coupled with a fluorescent dye. The skin sections are then examined by epifluorescence microscope (Nikon Eclipse E600 microscope).

[5] = tested on: normal human keratinocytes; test: Differentiation study of human keratinocytes (pankeratin immunofluorescence); details: 0.5 ppm peptide, 48 hours, epifluorescence
Protocol: The goal of this study is to determine the influence of peptide SEQ ID No. 5 on epidermal differentiation.
Normal human keratinocytes in culture are treated with a 1% stock solution at 50 ppm of peptide SEQ ID No. 4 for 48 hours (the medium in the presence of the active ingredient is changed every 24 hours). The cells are then washed and fixed with cold methanol for 4 minutes at 4° C.

[6] = 48 hours, transmission electron microscopy

Row | Substance | caveolae versus untreated control cells [1] | HMG-CoA reductase cytoplasmic fluorescence (HMG-CoA reductase [2]) | Golgi complex development versus control cells [3, 6] | production of lamellar bodies (Odland bodies) [3, 6] | lipid synthesis ([3]; inferred from ultrastructure) | HMG-CoA reductase fluorescence in the upper layers of the epidermis versus untreated control (HMG-CoA reductase [4]) | expression of pankeratins [5]
1 | Ala-Gly-Glu-Leu-Ser (AGELS) [SEQ ID No. 4] | significant increase in caveolae | more intense cytoplasmic fluorescence |  |  |  |  | 
2 | Ala-Gly-Glu-Leu-Ser-NH2 (AGELS-NH2) [SEQ ID No. 5] |  |  | substantially more developed | excess production of lamellar bodies | increase in lipid synthesis | stronger fluorescence | increases the expression of pankeratins
